Reference: ChEMBL document CHEMBL4354783, “The calcium-dependent lipopeptide antibiotics: structure, mechanism, & medicinal chemistry” (2019)
≈ marks a conversion by molar mass, not a printed value.

What was measured:
[1] = test system: Enterococcus faecium; test: Antibacterial activity against vancomycin-resistant Enterococcus faecium incubated for 18 hrs by two-fold serial dilutions method; type: functional
[2] = test system: Staphylococcus aureus; test: Antibacterial activity against methicillin-resistant Staphylococcus aureus USA300 incubated for 18 hrs by two-fold serial dilutions method; type: functional; conditions: USA300, 18 h

| SMILES | MIC [1] [µg/mL] | MIC [2] [µg/mL] |
| --- | --- | --- |
| CCC(C)CC/C=C\C=C\C(=O)N[C@H](C(=O)N[C@@H]1C(=O)N[C@H](C(C)C)C(=O)N[C@@H](CCCCN)C(=O)N[C@@H](C(O)C(=O)O)C(=O)N[C@@H](CC(=O)O)C(=O)NCC(=O)N[C@H](C(C)C(=O)O)C(=O)N[C@@H](C(C)C)C(=O)N2C[C@H](C)C[C@H]2C(=O)NC1C)C(C)C(=O)O (some centres undefined) | 0.8 to 2 (≈ 0.633 to 1.58 µM) | 0.2 to 0.8 (≈ 0.158 to 0.633 µM) |
| CC(C)CC/C=C\C=C\C(=O)N[C@H](C(=O)N[C@@H]1C(=O)N[C@H](C(C)C)C(=O)N[C@@H](CCCCN)C(=O)N[C@@H](C(O)C(=O)O)C(=O)N[C@@H](CC(=O)O)C(=O)NCC(=O)N[C@H](C(C)C(=O)O)C(=O)N[C@@H](C(C)C)C(=O)N2C[C@H](C)C[C@H]2C(=O)NC1C)C(C)C(=O)O (some centres undefined) | 0.8 to 2 (≈ 0.64 to 1.6 µM) | 0.2 to 0.8 (≈ 0.16 to 0.64 µM) |
